Data from PMC8810773, “Structure-based prediction of HDAC6 substrates validated by enzymatic assay reveals determinants of promiscuity and detects new potential substrates” (Scientific Reports, 2022).

Target: T1, HDAC6 catalytic domain 2 (DD2) (Danio rerio, UniProt F8W4B7)
T1 construct: cloning the residues 440–798 of the Danio rerio HDAC6 gene into a modified pET28a(+) vector; 6xHis (N, cleaved yes); made in house; host or cells: E. coli BL21(DE3)
T1 sequence (F8W4B7 440-798): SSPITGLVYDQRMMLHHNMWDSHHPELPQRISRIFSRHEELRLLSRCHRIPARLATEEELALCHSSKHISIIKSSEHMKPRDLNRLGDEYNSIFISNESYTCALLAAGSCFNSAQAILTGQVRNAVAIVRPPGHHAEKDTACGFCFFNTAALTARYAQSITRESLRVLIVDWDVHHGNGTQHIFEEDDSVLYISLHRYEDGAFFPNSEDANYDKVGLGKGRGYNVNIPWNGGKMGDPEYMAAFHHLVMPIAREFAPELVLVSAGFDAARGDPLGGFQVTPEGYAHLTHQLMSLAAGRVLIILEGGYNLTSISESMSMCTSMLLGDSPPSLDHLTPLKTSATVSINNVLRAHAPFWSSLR
Experiment: Enzyme-coupled acetate detection assay ('acetate assay') of HDAC6-catalyzed peptide deacetylation
Assay type: biochemical
Conditions: Michaelis–Menten fit ± standard error; for kcat/KM: 10–2000 μM monoacetylated substrate, 0.1–1 μM HDAC6 DD2, 50 mM HEPES pH 8.0, 137 mM NaCl, 2.7 mM KCl, 1 mM MgCl2, 30 °C, NADH fluorescence, lower limits where KM below detection limit
Source text: We used an enzyme-coupled acetate detection assay, or simply the ‘acetate assay’ (see “Methods”), developed and applied previously[12],[27], to measure the catalytic efficiency (kcat/KM) of HDAC6. We measured catalysis of deacetylation of acetylated peptides with sequences taken from known substrate proteins, as well as a set of selected peptides with reported acetylation sites that were available to us from previous studies (Table 1). […] To ensure an accurate determination of kcat/KM we measured HDAC6-catalyzed deacetylation at a minimum of four peptide concentrations, with at least two concentrations below KM (Fig. 1, squares). A total of 26 peptides which met these criteria formed our training set (D-TRAINING, Table 1). Additionally, we included 16 peptides where the value of kcat was measured accurately but the KM value was lower than the limit of detection for the acetate assay (~ 10–20 μM substrate, circles in Fig. 1) allowing only the determination of a lower limit for the value of kcat/KM (set D-CAPPED, see below and Table 1). The measured kcat/KM values span the range of three orders of magnitude.
Figure 1 Dependence of deacetylation rate on substrate concentration for two representative peptides catalyzed by HDAC6, measured using the acetate assay. The initial velocity for each substrate concentration was determined from a linear regression of a time course consisting of a minimum of three timepoints, standard error is shown. The kinetic parameters are determined from a nonlinear least square fit of the Michaelis–Menten equation to the data and are listed in Table 1. Black squares: example of data which met the criteria to produce accurate kcat/KM values. Green circles: example of overfit data resulting in calculation of a lower limit for kcat/KM, due to the KM being lower than the detection limit of the assay.
The coupled acetate detection assay or simply the ‘acetate assay’ was performed as previously described with a few modifications. Briefly, lyophilized peptides were re-suspended in water when possible or with minimal quantities of acid, base, or organic solvent to improve solubility. Peptide concentration was determined by one or more of the following methods: (1) measuring A280 using the extinction coefficients if the peptide contained a tryptophan or tyrosine, using the fluorescamine assay if the peptide contained a free lysine, (2) performing the bicinchoninic acid (BCA) assay using bovine serum albumin (BSA) as a standard, and (3) determining the concentration of acetate produced by complete deacetylation of the peptide by HDAC6.
Reactions containing 10–2000 μM monoacetylated peptides in 1× HDAC6 assay buffer (50 mM HEPES, pH 8.0, 137 mM NaCl, 2.7 mM KCl, 1 mM MgCl2) were initiated with 0.1–1 μM HDAC6 at 30 °C. […]

Substance: RKSTGG(K-ac)APRKQL [13-mer: RKSTGG(K-ac)APRKQL, H3 K14ac 13-mer peptide]
- kcat/KM: 140,000±10,000 M^−1 s^−1
- kcat/KM (listed as 13-mer peptide analog): 140000 M⁻¹ s⁻¹
- kcat (HDAC6 DD2, pH 8.0, 30 °C): 4.1 ± 0.3 s⁻¹
- Km (HDAC6 DD2, pH 8.0, 30 °C, detection limit ~10–20 μM substrate): 28 ± 5 µM
